Test results as given in patent US11452708B2, “Discovery of potent [alpha]-glucosidase inhibitors from Heterophragma adenophyllum” (KING ABDULAZIZ UNIVERSITY, priority 2021, dated 2022).
Values joined by “and” are separate entries in the source; they are usually repeats but may differ in a detail not shown here. Equal values may be shown once. Read-outs that look alike come from different tables or passages of the source.

Biological target: α-glucosidase (E.C.3.2.1.20) (Saccharomyces cerevisiae, UniProt P53341)
Sequence (P53341 whole entry): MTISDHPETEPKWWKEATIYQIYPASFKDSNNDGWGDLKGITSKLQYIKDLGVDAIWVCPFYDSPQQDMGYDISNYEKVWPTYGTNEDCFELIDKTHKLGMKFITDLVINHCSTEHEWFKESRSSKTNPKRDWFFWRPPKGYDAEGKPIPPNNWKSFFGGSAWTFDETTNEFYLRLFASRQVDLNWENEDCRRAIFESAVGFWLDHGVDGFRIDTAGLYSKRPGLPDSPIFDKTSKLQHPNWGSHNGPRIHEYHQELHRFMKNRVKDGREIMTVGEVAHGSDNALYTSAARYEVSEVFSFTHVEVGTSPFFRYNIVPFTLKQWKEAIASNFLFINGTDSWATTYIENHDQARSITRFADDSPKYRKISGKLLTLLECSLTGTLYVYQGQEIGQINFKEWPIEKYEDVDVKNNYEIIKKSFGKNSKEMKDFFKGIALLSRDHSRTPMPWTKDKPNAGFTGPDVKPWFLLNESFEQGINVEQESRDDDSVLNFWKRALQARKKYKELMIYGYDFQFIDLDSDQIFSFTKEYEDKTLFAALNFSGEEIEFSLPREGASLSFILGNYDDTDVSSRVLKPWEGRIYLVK
Assay: α-glucosidase inhibitory activity (p-nitrophenyl-α-d-glucopyranoside substrate, absorbance at 400 nm)
Type: biochemical
Settings: in vitro; for IC50: 0.1 M phosphate buffer, pH 6.8, 37° C., standard acarbose, unit inferred
Experimental: . The substrate (0.7 Mm, p-nitrophenyl-α-d-glucopyranoside) was then mixed in and the difference in absorbance at 400 nm was recorded using a spectrophotometer for 30 minutes. The tested extracts and compound 1 were substituted with DMSO-d6 (7.5%) in the control. The standard drug used in this experiment was acarbose. The percentage activity was calculated by using the following formula.

[1] = read-out: IC50, α-glucosidase inhibition

Row | Compound | IC50 [1] | other results
1 | CC(C)=CCC1=C(O)C(=O)c2ccccc2C1=O [Compound 1, lapachol] | 33.1 ± 2.41 µM | 
2 | COC(=O)C1(O)c2ccccc2C(=O)C1(O)CC=C(C)C (stereo not shown) [Compound 3, Methyl 1,2-dihydroxy-2-(3-methylbut-2-enyl)-3-oxo-2,3-dihydroxo-1H-indene-1-carboxylate] |  | IC50 (IC50, α-glucosidase inhibition): 78.3 µM and 117 µM
3 | CC1(C)CCC2=C(O1)C(=O)c1ccccc1C2=O [Compound 4, α-lapachone] | 117 µM and 78.3 µM | 
4 | peshawaraquinone [Compound 2] |  | α-glucosidase inhibitory activity (in words) (comparison among the tested compounds 1-4): least active
